Test results from US7160905B2, “Hydroxyethylene compounds with Asp2 inhibitory activity” (SmithKline Beecham p.l.c., priority 2001, dated 2007).
Like-named read-outs stand apart in the source and are kept apart here.

Columns and labels:
Assay type in all cases: biochemical
[1] = target: T1, Asp-1 (Homo sapiens, UniProt Q9Y5Z0); test: Asp-1 inhibitory assay (FAM-[SEVNLDAEFK]-TAMRA fluorescence); details: Assay (II), 2 h at room temperature, pH 4.5
T1 sequence (Q9Y5Z0 63-518): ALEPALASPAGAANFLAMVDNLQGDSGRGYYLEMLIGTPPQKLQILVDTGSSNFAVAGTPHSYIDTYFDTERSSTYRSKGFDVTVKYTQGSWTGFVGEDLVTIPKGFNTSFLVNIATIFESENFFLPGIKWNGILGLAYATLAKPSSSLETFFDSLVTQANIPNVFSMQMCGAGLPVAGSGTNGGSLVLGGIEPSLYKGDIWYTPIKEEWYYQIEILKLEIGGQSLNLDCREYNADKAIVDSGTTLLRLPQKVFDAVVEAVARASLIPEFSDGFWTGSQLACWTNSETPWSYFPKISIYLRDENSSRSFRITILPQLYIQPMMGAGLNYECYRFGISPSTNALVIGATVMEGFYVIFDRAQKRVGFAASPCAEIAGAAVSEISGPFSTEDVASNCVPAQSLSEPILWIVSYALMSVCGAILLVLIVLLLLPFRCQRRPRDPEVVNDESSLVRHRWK
Procedure: (II) Asps-1 Inhibitory Assay
(§1) For each compound being assayed, in a 384 well plate, is added:— • a) 1 μl of a DMSO solution of the test compound (IC50 curve uses ten 1 in 2 serial dilutions from 500 μM). • b) 10 μl of substrate (FAM-[SEVNLDAEFK]-TAMRA) solution in buffer. This is prepared by diluting 2 ml of a 2 mM DMSO solution of the substrate into 400 ml of buffer (100 mM Sodium acetate pH=4.5, 1 l Milli-Q water, 0.06% Triton X-100 (0.5 ml/l), pH adjusted to 4.5 using glacial acetic acid). • c) 10 μl enzyme solution. This is prepared by diluting 4 ml of a 6.3 μM enzyme solution into 496 ml of buffer (100 mM Sodium acetate pH=4.5, 40 mM sodium chloride, 900 ml Milli-Q water, 100 ml glycerol, 0.2% CHAPS (2 g/l), pH adjusted to 4.5 using glacial acetic acid).
Blank wells (enzyme solution replaced by buffer) are included as controls on each plate. Wells are incubated for 2 h at room temperature and fluorescence read using a Tecan Ultra Fluorimeter/Spectrophotometer (485 nm excitation, 535 nm emission).

[2] = target: Cathepsin D (Homo sapiens, UniProt P07339); test: Cathepsin D inhibitory assay (FAM-[SEVNLDAEFK]-TAMRA fluorescence); details: Assay (III), 1 h at room temperature, pH 4.5; read-out: inhibition (CatD)
Cathepsin D, sequence (P07339 65-412, species assumed): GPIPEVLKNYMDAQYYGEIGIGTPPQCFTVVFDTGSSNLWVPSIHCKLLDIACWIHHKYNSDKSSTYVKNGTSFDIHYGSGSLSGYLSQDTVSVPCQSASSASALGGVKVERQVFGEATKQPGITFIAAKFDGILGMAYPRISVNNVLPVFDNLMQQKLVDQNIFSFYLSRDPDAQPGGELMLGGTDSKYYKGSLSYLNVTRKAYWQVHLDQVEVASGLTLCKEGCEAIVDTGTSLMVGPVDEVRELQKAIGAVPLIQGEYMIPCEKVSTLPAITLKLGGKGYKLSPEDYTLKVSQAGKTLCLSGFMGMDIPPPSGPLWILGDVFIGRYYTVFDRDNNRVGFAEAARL
Procedure: (III) Cathepsin D Inhibitory Assay
as §1, with “diluting 1.6” for “diluting 4”, “a 200 unit/ml (in 10 mM HCl)” for “a 6.3 μM”, “into 398.4” for “into 496”, “buffer (prepared as above).” for “buffer (100 mM Sodium acetate pH=4.5, 40 mM sodium chloride, 900 ml Milli-Q water, 100 ml glycerol, 0.2% CHAPS (2 g/l), pH adjusted to 4.5 using glacial acetic acid).”
(§2) Blank wells (enzyme solution replaced by buffer) are included as controls on each plate. Wells are incubated for 1 h at room temperature and fluorescence read using a Tecan Ultra Fluorimeter/Spectrophotometer (485 nm excitation, 535 nm emission).

[3] = target: Asp-2 (Homo sapiens, UniProt P56817); test: Asp-2 inhibitory assay (FAM-[SEVNLDAEFK]-TAMRA fluorescence); details: Assay (I), 1 h at room temperature, pH 4.5
Asp-2, sequence (P56817 46-501): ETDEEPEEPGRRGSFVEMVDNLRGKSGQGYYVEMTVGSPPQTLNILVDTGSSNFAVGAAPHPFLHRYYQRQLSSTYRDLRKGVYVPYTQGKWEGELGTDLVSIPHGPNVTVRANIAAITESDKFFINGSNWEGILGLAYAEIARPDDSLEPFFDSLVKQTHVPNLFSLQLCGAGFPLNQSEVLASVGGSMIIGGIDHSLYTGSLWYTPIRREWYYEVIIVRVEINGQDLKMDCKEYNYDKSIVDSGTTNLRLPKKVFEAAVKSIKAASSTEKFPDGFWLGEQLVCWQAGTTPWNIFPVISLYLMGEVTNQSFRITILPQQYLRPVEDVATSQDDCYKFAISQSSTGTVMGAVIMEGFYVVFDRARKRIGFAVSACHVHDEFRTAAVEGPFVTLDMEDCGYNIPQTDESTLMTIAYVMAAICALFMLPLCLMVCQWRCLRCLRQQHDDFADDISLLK
Procedure: (I) Asp-2 Inhibitory Assay
For each compound being assayed, in a 384 well plate, is added:— • a) 1 μl of a DMSO solution of the test compound (IC50 curve uses ten 1 in 2 serial dilutions from 500 μM) • b) 10 μl of substrate (FAM-[SEVNLDAEFK]-TAMRA) solution in buffer. This is prepared by diluting 2 ml of a 2 mM DMSO solution of the substrate into 400 ml of buffer (100 mM Sodium acetate pH=4.5, 1 l Milli-Q water, 0.06% Triton X-100 (0.5 ml/l), pH adjusted to 4.5 using glacial acetic acid). Aminomethyl fluorescein (FAM) and tetramethyl rhodamine (TAMRA) are fluorescent molecules which co-operate to emit fluorescence at 535 nm upon cleavage of the SEVNLDAEFK peptide. • c) 10 μl enzyme solution. This is prepared by diluting 16 ml of a 500 nM enzyme solution into 384 ml of buffer (prepared as above).
as §2

IC50 ([1]; read-out: inhibition (Asp-1))	IC50 [2]	IC50 ([3]; read-out: inhibition (Asp-2))	IC50 ([1]; read-out: Asp-1 IC50)	IC50 ([3]; read-out: Asp-2 IC50)	Structure (SMILES)
3.3 µM	9.6 µM	0.18 µM	–	–	C[C@H](C[C@H](O)[C@H](Cc1ccccc1)NC(=O)c1ccc(S(C)(=O)=O)s1)C(=O)NCCC(C)(C)C [Example E9, 5-Methanesulfonyl-thiophene-2-carboxylic acid [(1S,2S,4R)-1-benzyl-4-(3,3-dimethyl-butylcarbamoyl)-2-hydroxypentyl]-amide]
–	–	–	5.57 µM	0.33 µM	C#CC[C@H](C[C@H](O)[C@H](Cc1ccccc1)NC(=O)c1cccc(S(C)(=O)=O)c1)C(=O)NC1CC2CCC1C2 (stereo partly shown) [Example E2]
–	–	–	7.7 µM	0.4 µM	C[C@H](C[C@H](O)[C@H](Cc1ccccc1)NC(=O)c1cccc(S(C)(=O)=O)c1)C(=O)NCCC(C)(C)C [Example E1, N-[(1S,2S,4R)-1-Benzyl-4-(3,3-dimethylbutylcarbamoyl)-2-hydroxypentyl]-3-methanesulfonyl-benzamide]
